# According to ChEMBL document CHEMBL1201862, “PubChem BioAssay data set” (2004):
#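 How tested: cells in 96-well plates exposed to compound for 48 hours at five concentrations. GI50 marks 50% less growth.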 Active and inactive are the calls of the source. No stated cut-off is given here; in the data, active = GI50 up to about 1.1 µM and inactive = higher.
# Key:
# Assay in all cases: NCI tumour cell line growth inhibition, 48 h
# [1] = test system: MDA-MB-435
# [2] = test system: NCI-H23
# [3] = test system: SNB-19
# [4] = test system: IGROV-1
# [5] = test system: MDA-MB-231
# [6] = test system: SF-295
# [7] = test system: A549
# [8] = test system: HOP-62
# [9] = test system: DU-145
# [10] = test system: HL-60
# [11] = test system: NCI-H460
# [12] = test system: Malme-3M
# [13] = test system: SW-620
# [14] = test system: SN12C
# [15] = test system: NCI-H522
# [16] = test system: CAKI-1
# [17] = test system: HCC 2998
# [18] = test system: SNB-75
# [19] = test system: M14
SMILES,GI50 [1],GI50 [2],GI50 [3],GI50 [4],GI50 [5],GI50 [6],GI50 [7],GI50 [8],GI50 [9],GI50 [10],GI50 [11],GI50 [12],GI50 [13],GI50 [14],GI50 [15],GI50 [16],GI50 [17],GI50 [18],GI50 [19]
Cc1ccc(Cc2n[nH]c(=O)n2Nc2ccccc2)cc1,> 100 µM (inactive),> 100 µM (inactive),> 100 µM (inactive),> 100 µM (inactive),> 100 µM (inactive),> 100 µM (inactive),> 100 µM (inactive),> 100 µM (inactive),> 100 µM (inactive),> 100 µM (inactive),> 100 µM (inactive),> 100 µM (inactive),> 100 µM (inactive),> 100 µM (inactive),> 100 µM (inactive),> 100 µM (inactive),> 100 µM (inactive),,
COC(=O)CC1C(=O)OCc2c1cc1n(c2=O)Cc2c-1nc1ccccc1c2OC (stereo not drawn),,17.3 µM (inactive),37 µM (inactive),> 100 µM (inactive),,,59.8 µM (inactive),11 µM (inactive),,18.5 µM (inactive),4.16 µM (inactive),> 100 µM (inactive),> 100 µM (inactive),41.4 µM (inactive),25.8 µM (inactive),4.51 µM (inactive),> 100 µM (inactive),6.53 µM (inactive),18 µM (inactive)
CC(=O)N1CCN(C=S)CC1,,> 100 µM (inactive),> 100 µM (inactive),> 100 µM (inactive),,> 100 µM (inactive),> 100 µM (inactive),> 100 µM (inactive),,> 100 µM (inactive),> 100 µM (inactive),> 100 µM (inactive),> 100 µM (inactive),> 100 µM (inactive),> 100 µM (inactive),> 100 µM (inactive),> 100 µM (inactive),> 100 µM (inactive),> 100 µM (inactive)
O=C1[C@@H]2C3C=CC([C@H]4C(=O)N(CO)C(=O)[C@@H]34)[C@@H]2C(=O)N1CO,,> 92.9 µM (inactive),> 100 µM (inactive),> 100 µM (inactive),,> 100 µM (inactive),> 64 µM (inactive),> 100 µM (inactive),,24.9 µM (inactive),30.2 µM (inactive),> 100 µM (inactive),26.1 µM (inactive),> 57.5 µM (inactive),34.8 µM (inactive),> 100 µM (inactive),> 70 µM (inactive),> 78.2 µM (inactive),> 50.7 µM (inactive)
Cc1ccc(-c2cn3c(nc4ccccc43)c(/C=C/c3ccco3)n2)cc1,29.2 µM (inactive),37 µM (inactive),> 100 µM (inactive),62.1 µM (inactive),> 100 µM (inactive),,> 100 µM (inactive),> 100 µM (inactive),> 100 µM (inactive),22.2 µM (inactive),58.1 µM (inactive),65.6 µM (inactive),47.6 µM (inactive),86.9 µM (inactive),,,> 100 µM (inactive),> 100 µM (inactive),> 100 µM (inactive)
O=C1CC(O)C=C1Nc1ccc(Cl)cc1 (stereo not drawn),,29 µM (inactive),80.7 µM (inactive),43.1 µM (inactive),,33.1 µM (inactive),5.81 µM (inactive),79.6 µM (inactive),,13.1 µM (inactive),23.1 µM (inactive),59.8 µM (inactive),34.1 µM (inactive),62.5 µM (inactive),11.2 µM (inactive),10.5 µM (inactive),12.1 µM (inactive),26.5 µM (inactive),10.3 µM (inactive)
c1ccc2c(c1)N=C(c1cccc3ccccc13)CC(c1cccc3ccccc13)S2 (stereo not drawn),,3.57 µM (inactive),4.33 µM (inactive),5.68 µM (inactive),,9.77 µM (inactive),9.12 µM (inactive),9.14 µM (inactive),,0.467 µM (active),3.8 µM (inactive),14.9 µM (inactive),2.56 µM (inactive),4.79 µM (inactive),2.54 µM (inactive),4.43 µM (inactive),4.21 µM (inactive),5.83 µM (inactive),13.2 µM (inactive)
COc1ccc(/C=C/c2cc(OC)c(OC)c(OC)c2)cc1OC,,> 100 µM (inactive),> 100 µM (inactive),> 100 µM (inactive),,65.2 µM (inactive),> 100 µM (inactive),44 µM (inactive),,> 70.3 µM (inactive),> 100 µM (inactive),> 100 µM (inactive),> 100 µM (inactive),> 100 µM (inactive),68.5 µM (inactive),> 83.6 µM (inactive),> 100 µM (inactive),> 44.3 µM (inactive),> 100 µM (inactive)
